Assays:
Details in all cases: treatment: drug alone; 5 days
769-P [1] = assay: minimum viability across doses, drug alone, relative to DMSO (fraction); higher = less growth inhibition
Protocol: (§1)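 Primary HTS: 8 RCC cell lines treated with 8 doses (up to 10 uM) of each library drug alone for 5 days; viability read by CellTiter-Glo and normalised to DMSO. GI50 was fitted with XLfit (4-parameter), AUC is the area under the dose-response curve, and minimum viability is the lowest fraction of DMSO viability across doses.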

786-O [2] = assay: as above
Protocol: as §1

TK-10 [3] = assay: as above
Protocol: as §1

UO-31 [4] = assay: as above
Protocol: as §1

ACHN [5] = assay: as above
Protocol: as §1

SN12C [6] = assay: as above
Protocol: as §1

CAKI-1 [7] = assay: as above
Protocol: as §1

A498 [8] = assay: as above
Protocol: as §1

769-P [9] = assay: GI50, drug alone; higher = less potent
Protocol: as §1

786-O [10] = assay: GI50, drug alone; higher = less potent
Protocol: as §1

TK-10 [11] = assay: GI50, drug alone; higher = less potent
Protocol: as §1

UO-31 [12] = assay: GI50, drug alone; higher = less potent
Protocol: as §1

ACHN [13] = assay: GI50, drug alone; higher = less potent
Protocol: as §1

SN12C [14] = assay: GI50, drug alone; higher = less potent
Protocol: as §1

CAKI-1 [15] = assay: GI50, drug alone; higher = less potent
Protocol: as §1

A498 [16] = assay: GI50, drug alone; higher = less potent
Protocol: as §1

769-P [17] = assay: AUC of dose-response viability curve, drug alone (arbitrary (AUC of normalised viability)); higher = less growth inhibition
Protocol: as §1

786-O [18] = assay: as above
Protocol: as §1

TK-10 [19] = assay: as above
Protocol: as §1

UO-31 [20] = assay: as above
Protocol: as §1

ACHN [21] = assay: as above
Protocol: as §1

SN12C [22] = assay: as above
Protocol: as §1

CAKI-1 [23] = assay: as above
Protocol: as §1

A498 [24] = assay: as above
Protocol: as §1

SMILES | GI50, drug alone (786-O [10]) [µM] | GI50, drug alone (ACHN [13]) [µM] | minimum viability across doses (769-P [1]) | minimum viability across doses (786-O [2]) | minimum viability across doses (TK-10 [3]) | minimum viability across doses (UO-31 [4]) | minimum viability across doses (ACHN [5]) | minimum viability across doses (SN12C [6]) | minimum viability across doses (CAKI-1 [7]) | minimum viability across doses (A498 [8]) | GI50, drug alone (769-P [9]) [µM] | GI50, drug alone (TK-10 [11]) [µM] | GI50, drug alone (UO-31 [12]) [µM] | GI50, drug alone (SN12C [14]) [µM] | GI50, drug alone (CAKI-1 [15]) [µM] | GI50, drug alone (A498 [16]) [µM] | AUC of dose-response viability curve (769-P [17]) | AUC of dose-response viability curve (786-O [18]) | AUC of dose-response viability curve (TK-10 [19]) | AUC of dose-response viability curve (UO-31 [20]) | AUC of dose-response viability curve (ACHN [21]) | AUC of dose-response viability curve (SN12C [22]) | AUC of dose-response viability curve (CAKI-1 [23]) | AUC of dose-response viability curve (A498 [24])
CCN1CCN(Cc2ccc(-c3cc4c(N[C@H](C)c5ccccc5)ncnc4[nH]3)cc2)CC1 [AEE788 (NVP-AEE788)] | 8.51 | 0.415 | 0.0865 | 0.108 | 0.0159 | 0.0104 | 0.0622 | 0.276 | 0.0495 | 0.898 | 1.64 | 0.581 | 7.87 | 4.79 | 3.19 | > 10 | 2.61 | 3.45 | 2.13 | 3.98 | 2.1 | 2.77 | 2.81 | 3.87
N#C/C(=C\c1ccc(O)c(O)c1)C(=O)NCc1ccccc1 [AG-490] | 5.99 | 7.43 | 0.823 | 0.369 | 0.615 | 0.843 | 0.301 | 0.788 | 0.948 | 1.04 | > 10 | > 10 | > 10 | > 10 | > 10 | > 10 | 3.27 | 2.89 | 3.21 | 4.19 | 3.09 | 3.37 | 3.57 | 3.87
CC(C)(C)c1cc(C=C(C#N)C#N)cc(Br)c1O [AG-1024] | > 10 | > 10 | 0.853 | 0.729 | 0.791 | 1.24 | 0.904 | 0.919 | 0.846 | 1.02 | > 10 | > 10 | > 10 | > 10 | > 10 | > 10 | 3.41 | 2.78 | 3.13 | 4.79 | 3.56 | 3.53 | 3.65 | 3.94
COc1cc2ncnc(Nc3cccc(Cl)c3)c2cc1OC [AG-1478 (Tyrphostin AG-1478)] | 5.49 | 1.16 | 0.481 | 0.179 | 0.472 | 0.795 | 0.37 | 0.813 | 0.628 | 1.01 | 3.24 | 2.85 | > 10 | > 10 | > 10 | > 10 | 2.48 | 2.32 | 2.36 | 4.04 | 2.24 | 2.95 | 2.91 | 4.85
COc1ccc2c(Oc3ccc(NC(=O)c4c(C)n(CC(C)(C)O)n(-c5ccccc5)c4=O)nc3)ccnc2c1 [AMG458] | 4.55 | 4.79 | 0.971 | 0.25 | 0.66 | 0.597 | 0.262 | 0.71 | 0.449 | 0.859 | > 10 | > 10 | > 10 | > 10 | 8.65 | > 10 | 3.55 | 2.82 | 3.29 | 3.98 | 3.03 | 3.13 | 3.32 | 3.66
Cc1csc(-c2nnc(Nc3ccc(Oc4ncccc4-c4ccnc(N)n4)cc3)c3ccccc23)c1 [AMG 900] | 0.0169 | 0.171 | 0.287 | 0.0401 | 0.561 | 0.875 | 0.231 | 0.479 | 0.425 | 0.776 | 0.109 | > 10 | > 10 | 4.57 | 0.672 | > 10 | 1.64 | 0.822 | 2.41 | 3.73 | 1.72 | 2.49 | 2.02 | 4.67

Continued, in another order:

GI50, drug alone (786-O [10]) [µM] | GI50, drug alone (ACHN [13]) [µM] | SMILES | minimum viability across doses (769-P [1]) | minimum viability across doses (786-O [2]) | minimum viability across doses (TK-10 [3]) | minimum viability across doses (UO-31 [4]) | minimum viability across doses (ACHN [5]) | minimum viability across doses (SN12C [6]) | minimum viability across doses (CAKI-1 [7]) | minimum viability across doses (A498 [8]) | GI50, drug alone (769-P [9]) [µM] | GI50, drug alone (TK-10 [11]) [µM] | GI50, drug alone (UO-31 [12]) [µM] | GI50, drug alone (SN12C [14]) [µM] | GI50, drug alone (CAKI-1 [15]) [µM] | GI50, drug alone (A498 [16]) [µM] | AUC of dose-response viability curve (769-P [17]) | AUC of dose-response viability curve (786-O [18]) | AUC of dose-response viability curve (TK-10 [19]) | AUC of dose-response viability curve (UO-31 [20]) | AUC of dose-response viability curve (ACHN [21]) | AUC of dose-response viability curve (SN12C [22]) | AUC of dose-response viability curve (CAKI-1 [23]) | AUC of dose-response viability curve (A498 [24])
> 10 | > 10 | COc1ccc2c(OCc3nnc4ccc(-c5ccccc5)nn34)ccnc2c1 [AMG-208] | 0.879 | 0.869 | 0.804 | 1.25 | 0.888 | 0.912 | 0.678 | 1.15 | > 10 | > 10 | > 10 | > 10 | > 10 | > 10 | 3.41 | 3.53 | 3.11 | 4.94 | 3.47 | 3.4 | 2.66 | 4.38
0.424 | 1.54 | O=C1NC(=O)[C@@H](c2cn3c4c(cccc24)CCC3)[C@@H]1c1c[nH]c2ccccc12 [ARQ 197 (Tivantinib)] | 0.0795 | 0.00526 | 0.326 | 0.0233 | 0.144 | 0.251 | 0.201 | 0.121 | 1.55 | 2.88 | 1.31 | 2.17 | 1.06 | 1.15 | 2.55 | 2.06 | 2.77 | 3.27 | 2.63 | 2.86 | 2.54 | 3
2.38 | 3.11 | C=CC(=O)Nc1ccc2ncnc(Nc3ccc(OCc4cccc(F)c4)c(Cl)c3)c2c1.Cc1ccc(S(=O)(=O)O)cc1 [AST-1306] | 0.048 | 0.0947 | 0.109 | 1.05 | 0.315 | 0.188 | 0.174 | 0.922 | 1.72 | 0.884 | > 10 | 4.97 | 3.35 | > 10 | 2.61 | 2.59 | 2.33 | 4.13 | 2.9 | 3.03 | 2.76 | 3.99
